Measurements from patent publication US4369188A, “2-Thioxobenz[cd]indole-1(2H)-acetic acid derivatives” (Ayerst, McKenna & Harrison Inc., priority 1981, dated 1983).

Assays:
lens aldose reductase = biological target: T1, lens aldose reductase (Bos taurus, UniProt P16116); test: in vitro aldose reductase inhibition (modified Hayman and Kinoshita procedure); format: biochemical; settings: enzyme from bovine lens, read-out: % Inhibition at Different Molar Concentrations (in vitro); for inhibition at 10 µM: 10^-5 molar; for inhibition at 1 µM: 10^-6 molar; for inhibition at 0.1 µM: 10^-7 molar
T1 construct: the preparation of the enzyme from bovine lens; from tissue; host or cells: bovine lens
Excerpt: In the present case, the procedure of Hayman and Kinoshita is modified in that the final chromatography step is omitted in the preparation of the enzyme from bovine lens.
Table 1 gives the results of the compounds of formula I or an addition salt thereof when evaluated in the above in vitro test.

[1] = tested on: dulcitol accumulation in the lens; test: galactosemic rats: decrease of dulcitol accumulation in the lens; format: in vivo, rat (Sprague-Dawley)
Excerpt: The aldose reductase inhibiting property of a compound of formula I and its utilization in diminishing and alleviating diabetic complications also are demonstrable in experiments using galactosemic rats, see D. Dvornik et al., Science, 182, 1146 (1973). Such experiments are exemplified hereinbelow after the listing of the following general comments pertaining to these experiments:
(a) Four or more groups of six male rats, 50-70 g, Sprague-Dawley strain, were used. The first group, the control group, was fed a mixture of laboratory chow (rodent laboratory chow, Purina) and glucose at 20% (w/w %) concentration. The untreated galactosemic group was fed a similar diet in which galactose is substituted for glucose. The other groups were fed diets containing various amounts of the compound of formula I in the galacetose containing diet. The concentration of galactose in the diet of the treated groups was the same as that for the untreated galactosemic group.
(b) After four days, the animals were killed by decapitation. The eyeballs were removed and punctured with a razor blade; the freed lenses were rolled gently on filter paper and weighed. The sciatic nerves were dissected as completely as possible and weighed. Both tissues were frozen and kept up to two weeks before being analyzed for dulcitol.
(c) The tissues were homoginized in 5% (w/v) trichloroacetic acid and the polyol determination on the extracts were performed by a modification of the procedure of M. Kraml and L. Cosyns, Clin. Biochem., 2, 373 (1969). Only two minor reagent changes were made: (a) The rinsing mixture was an aqueous 5% (w/v) trichloroacetic acid solution and (b) the stock solution was prepared by dissolving 25 mg of dulcitol in 100 ml of an aqueous trichloroacetic acid solution. [N.B.: For each experiment the average value found in the tissued from rats fed the glucose diet was subtracted from the individual values found in the corresponding rat tissue to obtain the amount of polyol accumulated].
The results obtained are exemplified in Table 2, wherein the values under L and N respectively, represent the percentage decreases of dulcitol accumulation in the tissues of the lens, and sciatic nerve for treated rats as compared to controls.

[2] = 131 mg/kg/day in galactose diet, 4 days, vs controls

Structure (SMILES) | inhibition at 10 µM (lens aldose reductase) [%] | inhibition at 1 µM (lens aldose reductase) [%] | inhibition at 0.1 µM (lens aldose reductase) [%] | percentage decrease of dulcitol accumulation in lens (L) ([1]; 150 mg/kg/day in galactose diet, 4 days, vs controls) [%] | percentage decrease of dulcitol accumulation in lens (L) ([1]; 165 mg/kg/day in galactose diet, 4 days, vs controls) [%] | percentage decrease of dulcitol accumulation in lens (L) [1, 2] [%] | percentage decrease of dulcitol accumulation in lens (L) ([1]; 128 mg/kg/day in galactose diet, 4 days, vs controls) [%] | percentage decrease of dulcitol accumulation in lens (L) ([1]; 144 mg/kg, 96 h) [%] | percentage decrease of dulcitol accumulation in lens (L) ([1]; 134 mg/kg/day in galactose diet, 4 days, vs controls) [%] | percentage decrease of dulcitol accumulation in lens (L) ([1]; 141 mg/kg/day in galactose diet, 4 days, vs controls) [%]
NCCOC(=O)CN1C(=S)c2cccc3cccc1c23 [2-Thioxo-benz[cd]indole-1(2H)-acetic Acid, 2-Amino-ethyl Ester] | 83 | 29 |  |  |  |  |  |  |  | 
CCOC(=O)CN1C(=S)c2cccc3cccc1c23 [2-thioxo-benz[cd]indole-1(2H)-acetic acid, ethyl ester] | 66 | 11 |  | 11 |  |  |  |  |  | 
O=C(O)CN1C(=S)c2cccc3cccc1c23 [2-thioxo-benz[cd]indole-1(2H)-acetic acid] | 93 | 87 | 61 |  | 18 |  |  |  |  | 
CN(C)CCCOC(=O)CN1C(=S)c2cccc3c(Cl)ccc1c23 [6-Chloro-2-thioxo-benz[cd]indole-1(2H)-acetic Acid, 3-Dimethylamino-1propylEster] | 91 | 70 | 14 |  |  |  |  | 28 |  | 

Continued, in another order:

inhibition at 10 µM (lens aldose reductase) [%] | inhibition at 1 µM (lens aldose reductase) [%] | inhibition at 0.1 µM (lens aldose reductase) [%] | Structure (SMILES) | percentage decrease of dulcitol accumulation in lens (L) ([1]; 150 mg/kg/day in galactose diet, 4 days, vs controls) [%] | percentage decrease of dulcitol accumulation in lens (L) ([1]; 165 mg/kg/day in galactose diet, 4 days, vs controls) [%] | percentage decrease of dulcitol accumulation in lens (L) [1, 2] [%] | percentage decrease of dulcitol accumulation in lens (L) ([1]; 128 mg/kg/day in galactose diet, 4 days, vs controls) [%] | percentage decrease of dulcitol accumulation in lens (L) ([1]; 144 mg/kg, 96 h) [%] | percentage decrease of dulcitol accumulation in lens (L) ([1]; 134 mg/kg/day in galactose diet, 4 days, vs controls) [%] | percentage decrease of dulcitol accumulation in lens (L) ([1]; 141 mg/kg/day in galactose diet, 4 days, vs controls) [%]
89 | 56 | 13 | O=C(O)CN1C(=S)c2cccc3c(Br)cc(Br)c1c23 [6,8-dibromo-2-thioxo-benz[cd]indole-1(2H)-acetic acid] |  |  | 9 |  |  |  | 
94 | 76 | 30 | O=C(O)CN1C(=S)c2cccc3c(Cl)cc(Cl)c1c23 [6,8-dichloro-2-thioxo-benz[cd]indole-1(2H)-acetic acid] |  |  |  | 18 |  |  | 
95 | 91 | 79 | O=C(O)CN1C(=S)c2cccc3c(Br)ccc1c23 [6-Bromo-2-thioxo-benz[cd]indole-1(2H)-acetic Acid] |  |  | 27 |  |  |  | 
96 | 91 | 66 | O=C(O)CN1C(=S)c2cccc3c(Cl)ccc1c23 [6-chloro-2-thioxo-benz[cd]indole-1(2H)-acetic acid] |  |  |  |  |  | 27 | 
94 | 88 | 56 | O=C(O)CN1C(=S)c2cccc3c(F)ccc1c23 [6-fluoro-2-thioxo-benz[cd]indole-1(2H)-acetic acid] |  |  |  |  |  |  | 
93 | 91 | 81 | O=C(O)CN1C(=S)c2cccc3c(I)ccc1c23 [6-iodo-2-thioxo-benz[cd]indole-1(2H)-acetic acid] |  |  |  |  |  |  | 32
